Measurements published in ChEMBL document CHEMBL2396528, “Synthesis of new conjugated coumarin-benzimidazole hybrids and their anticancer activity” (2013).
Activity calls are given as the source filed them. The rule behind the calls is not given here.

Columns and labels:
Format in all cases: functional
OVCAR-4 = assay: Cytotoxicity against human OVCAR4 cells assessed as growth inhibition at 10 uM after 48 hrs by SRB assay relative to control; details: OVCAR-4, 48 h, read-out: GI
HCT-15 = assay: Cytotoxicity against human HCT15 cells assessed as growth inhibition at 10 uM after 48 hrs by SRB assay relative to control; details: HCT-15, 48 h, read-out: GI
SF-539 = assay: Cytotoxicity against human SF539 cells assessed as growth inhibition at 10 uM after 48 hrs by SRB assay relative to control; details: for inhibition of growth at 10 µM: SF-539, 48 h, read-out: GI
Malme-3M = assay: Cytotoxicity against human MALME-3M cells assessed as growth inhibition at 10 uM after 48 hrs by SRB assay relative to control; details: read-out: GI
SK-MEL-2 = assay: Cytotoxicity against human SK-MEL-2 cells assessed as growth inhibition at 10 uM after 48 hrs by SRB assay relative to control; details: SK-MEL-2, 48 h, read-out: GI
NCI-H226 = assay: Cytotoxicity against human NCI-H226 cells assessed as growth inhibition at 10 uM after 48 hrs by SRB assay relative to control; details: NCI-H226, 48 h, read-out: GI
HCC 2998 = assay: Cytotoxicity against human HCC2998 cells assessed as growth inhibition at 10 uM after 48 hrs by SRB assay relative to control; details: for inhibition of growth at 10 µM: HCC 2998, 48 h, read-out: GI
MOLT-4 = assay: Cytotoxicity against human MOLT4 cells assessed as growth inhibition at 10 uM after 48 hrs by SRB assay relative to control; details: MOLT-4, 48 h, read-out: GI
CAKI-1 = assay: Cytotoxicity against human Caki1 cells assessed as growth inhibition at 10 uM after 48 hrs by SRB assay relative to control; details: CAKI-1, 48 h, read-out: GI
MCF7 = assay: Cytotoxicity against human MCF7 cells assessed as growth inhibition at 10 uM after 48 hrs by SRB assay relative to control; details: MCF7, 48 h, read-out: GI
UACC-62 = assay: Cytotoxicity against human UACC62 cells assessed as growth inhibition at 10 uM after 48 hrs by SRB assay relative to control; details: UACC-62, 48 h, read-out: GI
UO-31 = assay: Cytotoxicity against human UO31 cells assessed as growth inhibition at 10 uM after 48 hrs by SRB assay relative to control; details: UO-31, 48 h, read-out: GI
T47D = assay: Cytotoxicity against human T47D cells assessed as growth inhibition at 10 uM after 48 hrs by SRB assay relative to control; details: read-out: GI
BT-549 = assay: Cytotoxicity against human BT549 cells assessed as growth inhibition at 10 uM after 48 hrs by SRB assay relative to control; details: BT-549, 48 h, read-out: GI
IGROV-1 = assay: Cytotoxicity against human IGROV1 cells assessed as growth inhibition at 10 uM after 48 hrs by SRB assay relative to control; details: IGROV-1, 48 h, read-out: GI
SK-MEL-28 = assay: Cytotoxicity against human SK-MEL-28 cells assessed as growth inhibition at 10 uM after 48 hrs by SRB assay relative to control; details: SK-MEL-28, 48 h, read-out: GI
SW-620 = assay: Cytotoxicity against human SW620 cells assessed as growth inhibition at 10 uM after 48 hrs by SRB assay relative to control; details: SW-620, 48 h, read-out: GI
SNB-75 = assay: Cytotoxicity against human SNB75 cells assessed as growth inhibition at 10 uM after 48 hrs by SRB assay relative to control; details: SNB-75, 48 h, read-out: GI
NCI-H23 = assay: Cytotoxicity against human NCI-H23 cells assessed as growth inhibition at 10 uM after 48 hrs by SRB assay relative to control; details: NCI-H23, 48 h, read-out: GI
OVCAR-3 = assay: Cytotoxicity against human OVCAR3 cells assessed as growth inhibition at 10 uM after 48 hrs by SRB assay relative to control; details: OVCAR-3, 48 h, read-out: GI
[1] = Cytotoxicity against human NCI-ADR-RES cells assessed as growth inhibition at 10 uM after 48 hrs by SRB assay relative to control; details: read-out: GI
OVCAR-5 = assay: Cytotoxicity against human OVCAR5 cells assessed as growth inhibition at 10 uM after 48 hrs by SRB assay relative to control; details: OVCAR-5, 48 h, read-out: GI
Hs-578T = assay: Cytotoxicity against human Hs578T cells assessed as growth inhibition at 10 uM after 48 hrs by SRB assay relative to control; details: for inhibition of growth at 10 µM: read-out: GI
A549 = assay: Cytotoxicity against human A549 cells assessed as growth inhibition at 10 uM after 48 hrs by SRB assay relative to control; details: A549, 48 h, read-out: GI
SK-OV-3 = assay: Cytotoxicity against human SKOV3 cells assessed as growth inhibition at 10 uM after 48 hrs by SRB assay relative to control; details: SK-OV-3, 48 h, read-out: GI
U-251 = assay: Cytotoxicity against human U251 cells assessed as growth inhibition at 10 uM after 48 hrs by SRB assay relative to control; details: U-251, 48 h, read-out: GI
KM12 = assay: Cytotoxicity against human KM12 cells assessed as growth inhibition at 10 uM after 48 hrs by SRB assay relative to control; details: KM12, 48 h, read-out: GI
SN12C = assay: Cytotoxicity against human SN12C cells assessed as growth inhibition at 10 uM after 48 hrs by SRB assay relative to control; details: read-out: GI
PC-3 = assay: Cytotoxicity against human PC3 cells assessed as growth inhibition at 10 uM after 48 hrs by SRB assay relative to control; details: PC-3, 48 h, read-out: GI
OVCAR-8 = assay: Cytotoxicity against human OVCAR8 cells assessed as growth inhibition at 10 uM after 48 hrs by SRB assay relative to control; details: OVCAR-8, 48 h, read-out: GI
HL-60(TB) = assay: Cytotoxicity against human HL-60(TB) cells assessed as growth inhibition at 10 uM after 48 hrs by SRB assay relative to control; details: HL-60, 48 h, read-out: GI
K562 = assay: Cytotoxicity against human K562 cells assessed as growth inhibition at 10 uM after 48 hrs by SRB assay relative to control; details: K562, 48 h, read-out: GI
SF-268 = assay: Cytotoxicity against human SF268 cells assessed as growth inhibition at 10 uM after 48 hrs by SRB assay relative to control; details: SF-268, 48 h, read-out: GI
UACC-257 = assay: Cytotoxicity against human UACC257 cells assessed as growth inhibition at 10 uM after 48 hrs by SRB assay relative to control; details: UACC-257, 48 h, read-out: GI
NCI-H522 = assay: Cytotoxicity against human NCI-H522 cells assessed as growth inhibition at 10 uM after 48 hrs by SRB assay relative to control; details: NCI-H522, 48 h, read-out: GI

| SMILES | inhibition of growth at 10 µM (OVCAR-4) [%] | inhibition of growth at 10 µM (HCT-15) [%] | inhibition of growth at 10 µM (Malme-3M) [%] | inhibition of growth at 10 µM (SK-MEL-2) [%] | inhibition of growth at 10 µM (NCI-H226) [%] | inhibition of growth at 10 µM (MOLT-4) [%] | inhibition of growth at 10 µM (CAKI-1) [%] | inhibition of growth at 10 µM (MCF7) [%] | inhibition of growth at 10 µM (UO-31) [%] | inhibition of growth at 10 µM (T47D) [%] | inhibition of growth at 10 µM (BT-549) [%] | inhibition of growth at 10 µM (IGROV-1) [%] | inhibition of growth at 10 µM (SK-MEL-28) [%] | inhibition of growth at 10 µM (SW-620) [%] | inhibition of growth at 10 µM (SNB-75) [%] | inhibition of growth at 10 µM (NCI-H23) [%] | inhibition of growth at 10 µM (OVCAR-3) [%] | inhibition of growth at 10 µM [1] [%] | inhibition of growth at 10 µM (OVCAR-5) [%] | inhibition of growth at 10 µM (A549) [%] | further results |
| --- | --- | --- | --- | --- | --- | --- | --- | --- | --- | --- | --- | --- | --- | --- | --- | --- | --- | --- | --- | --- | --- |
| O=c1oc2cc(NCCO)ccc2cc1-c1nc2ccccc2[nH]1 | 44.8 | 72.7 | 29.8 | < 20 | 30 | 38 | 22.4 | 62.1 | 41.9 | 70.7 | 33.1 | 24.5 | < 20 | 21.4 | < 20 | 32.9 | 32.8 | 23.7 | < 20 | < 20 | inhibition of growth at 10 µM (SF-539): 25.9%; inhibition of growth at 10 µM (HCC 2998): < 20%; inhibition of growth at 10 µM (UACC-62): 27.2%; inhibition of growth at 10 µM (Hs-578T): < 20%; inhibition of growth at 10 µM (SK-OV-3): < 20%; inhibition of growth at 10 µM (U-251): 20.7%; inhibition of growth at 10 µM (KM12): < 20%; inhibition of growth at 10 µM (SN12C): 22.4%; inhibition of growth at 10 µM (PC-3): 56.7%; inhibition of growth at 10 µM (OVCAR-8): 31.4%; inhibition of growth at 10 µM (HL-60(TB)): 80.5%; inhibition of growth at 10 µM (K562): 57.3%; inhibition of growth at 10 µM (SF-268): 26.1%; inhibition of growth at 10 µM (UACC-257): 28%; inhibition of growth at 10 µM (NCI-H522): 23.7% |
| O=c1oc2cc(Br)ccc2cc1-c1nc2ccccc2[nH]1 | < 20 | < 20 | < 20 | < 20 | < 20 | < 20 | < 20 | 30 | 22.7 | 28.4 | < 20 | < 20 | < 20 | < 20 | 22.9 | < 20 | < 20 | < 20 | < 20 | < 20 | inhibition of growth at 10 µM (SF-539): < 20%; inhibition of growth at 10 µM (HCC 2998): < 20%; inhibition of growth at 10 µM (UACC-62): < 20%; inhibition of growth at 10 µM (Hs-578T): 25.1%; inhibition of growth at 10 µM (SK-OV-3): < 20%; inhibition of growth at 10 µM (U-251): < 20%; inhibition of growth at 10 µM (KM12): < 20%; inhibition of growth at 10 µM (SN12C): < 20%; inhibition of growth at 10 µM (PC-3): < 20%; inhibition of growth at 10 µM (OVCAR-8): < 20%; inhibition of growth at 10 µM (HL-60(TB)): < 20%; inhibition of growth at 10 µM (K562): < 20%; inhibition of growth at 10 µM (SF-268): < 20%; inhibition of growth at 10 µM (UACC-257): < 20%; inhibition of growth at 10 µM (NCI-H522): 20.6% |
| CN1CCN(c2ccc3cc(-c4nc5ccccc5[nH]4)c(=O)oc3c2)CC1 | 29.8 | < 20 | < 20 | < 20 | < 20 | < 20 | < 20 | 26.3 | 34.6 | 23.1 | < 20 | 20.1 | < 20 | < 20 | < 20 | 25.5 | < 20 | < 20 | < 20 | < 20 | inhibition of growth at 10 µM (SF-539): < 20%; inhibition of growth at 10 µM (HCC 2998): < 20%; inhibition of growth at 10 µM (Hs-578T): < 20%; inhibition of growth at 10 µM (SK-OV-3): < 20%; inhibition of growth at 10 µM (U-251): < 20%; inhibition of growth at 10 µM (KM12): < 20%; inhibition of growth at 10 µM (SN12C): < 20%; inhibition of growth at 10 µM (PC-3): < 20%; inhibition of growth at 10 µM (OVCAR-8): < 20%; inhibition of growth at 10 µM (HL-60(TB)): 27.1%; inhibition of growth at 10 µM (K562): 56.4%; inhibition of growth at 10 µM (SF-268): < 20%; inhibition of growth at 10 µM (UACC-257): 25.3%; inhibition of growth at 10 µM (NCI-H522): < 20% |
| O=c1[nH]cc(F)c(=O)[nH]1 [FLUOROURACIL] | 59.4 | 26.5 | 58.2 | 95.5 | 69.5 | 43.1 | 39.4 | 11.5 | 41.3 | 56.7 | 37.8 | 51.2 | 19.5 | < 20 | 65.9 | 39 | 47.4 | 47.6 | 44.3 | 34.2 | growth inhibition (GI) (SF-539): Active; growth inhibition (GI) (HCC 2998): Active; inhibition of growth at 10 µM (UACC-62): 39.7%; growth inhibition (GI) (Hs-578T): Active; inhibition of growth at 10 µM (SK-OV-3): 77.5%; inhibition of growth at 10 µM (U-251): 50.3%; inhibition of growth at 10 µM (KM12): 40.7%; inhibition of growth at 10 µM (SN12C): 54%; inhibition of growth at 10 µM (PC-3): 58.2%; inhibition of growth at 10 µM (HL-60(TB)): 47.9%; inhibition of growth at 10 µM (K562): 42.3%; inhibition of growth at 10 µM (SF-268): 59%; inhibition of growth at 10 µM (UACC-257): 33.7%; inhibition of growth at 10 µM (NCI-H522): 58% |
